Assay results published in ChEMBL document CHEMBL1139930, “Solvatochromism, DNA binding, antitumor activity and molecular modeling study of mixed-ligand copper(II) complexes containing the bulky ligand: bis[N-(p-tolyl)imino]acenaphthene” (Eur J Med Chem, 2007).
≈ marks a conversion by molar mass, not a printed value.

Experiments:
[1] = Displacement of methyl green from DNA; set-up: species or system Homo sapiens
Ehrlich [2] = assay: Antitumor activity against Ehrlich ascites carcinoma cells in mouse assessed as WBC count at 20 mg/kg after 14 days; format: functional
Ehrlich [3] = assay: Antitumor activity against Ehrlich ascites carcinoma cells in mouse assessed as haemoglobin level at 20 mg/kg after 14 days; format: functional
Ehrlich [4] = assay: Antitumor activity against Ehrlich ascites carcinoma cells in mouse assessed as cell viability at 20 mg/kg after 5 days; format: functional
Ehrlich [5] = assay: Antitumor activity against Ehrlich ascites carcinoma cells in mouse assessed as increase in life span at 20 mg/kg relative to control; format: functional
Ehrlich [6] = assay: Antitumor activity against Ehrlich ascites carcinoma cells in mouse assessed as RBC count at 20 mg/kg after 14 days; format: functional

SMILES	IC50 [1] [µg/mL]	Activity (Ehrlich [2])	Activity (Ehrlich [3]) [%]	Activity (Ehrlich [4])	Activity (Ehrlich [5]) [%]	Activity (Ehrlich [6])
COc1cccc2c1C(=O)c1c(O)c3c(c(O)c1C2=O)C[C@@](O)(C(C)=O)C[C@@H]3O[C@H]1C[C@H](N)[C@H](O)[C@H](C)O1 [DAUNORUBICIN]	28 (≈ 53.1 µM)					
O=c1[nH]cc(F)c(=O)[nH]1 [FLUOROURACIL]		14.7 /10^3mm3	15.6	83.6 10^6/100microL	42.8	5.87 /10^6mm3
